Source: paper PMC11843613, “Further Optimization of the mGlu1 PAM VU6024578/BI02982816: Discovery and Characterization of VU6033685” (ACS Chemical Neuroscience, 2025)
Read-outs that look alike come from different tables or passages of the source. Values belong to the molecule of their own block, whether it stands above or below them.

What was measured:
[1] = Rat tolerability in NOR and PO PK studies
[2] = Plasma protein binding (dog); format: in vitro ADME; details: pH 7.4, read-out: fu plasma (d)
Description: page 13: at half log concentrations in DMSO were further diluted in assay buffer. The compounds or DMSO vehicle were added to cells and incubated for 2.5 min and an EC20 concentration of glutamate was added and incubated for 1 min. An ECmax concentration of glutamate was also added to cells that were incubated with DMSO vehicle to accurately calculate the EC20 calcium response. Data were normalized by subtracting the basal florescent peak before EC20 agonist addition from the maximal peak elicited by EC20 agonist and PAMs. Using GraphPad Prism 5.0, the concentration response curves were generated and the potencies of the mGlu1 PAMs were determined. DMPK Methods Plasma protein binding: The protein binding of each compound was determined in plasma via equilibrium dialysis employing RED Plates (ThermoFisher Scientific, Rochester, NY). Plasma was added to the 96 well plate containing test compound and mixed thoroughly for a final concentration of 5 µM. Subsequently, an aliquot of the plasma-compound mixture was transferred to the cis chamber (red) of the RED plate, with an phosphate buffer (25 mM, pH 7.4) in the trans chamber. The RED plate was sealed and incubated for 4 hours at 37°C with shaking. […] The in vitro half-life (T 1/2, min, Eq. 1), intrinsic clearance (CLint, mL/min/kg, Eq. 2) and subsequent predicted hepatic clearance (CLhep, mL/min/kg, Eq. 3) was determined S13

[3] = Three-day dose escalation toxicology study in mice; format: in vivo, mouse; details: for AUC at 3 day: in vivo
[4] = Dose escalation PO PK study in mice; format: in vivo, mouse
[5] = Rat CNS penetration (brain:plasma); format: in vivo; details: male, Sprague-Dawley, intraperitoneal, 10 mg/kg; for Kp at 0.25 h: brain and plasma, rat brain:plasma; for Kp uu at 0.25 h: rat, brain/plasma
Description: In vivo DMPK experimental
Compounds were formulated as 10% tween 80 micro suspensions in sterile water at the concentration of 1 mg/ml and administered intraperitoneally to male Sprague- Dawley rats weighing 225 to 250 g (Harlan, Inc., Indianapolis, IN) at the dose of 10 mg/kg. The rat blood and brain were collected at 0.25 hr. Animals were euthanized and decapitated, and the brains were removed, thoroughly washed in cold phosphate buffered saline and immediately frozen on dry ice.
Trunk blood was collected in EDTA Vacutainer tubes, and plasma was separated by centrifugation and stored at -80°C until analysis. Plasma was separated by centrifugation (4000 rcf, 4°C) and stored at […] until analysis. On the day of analysis, frozen whole-rat brains were weighed and diluted with 1:3 (w/w) parts of 70:30 isopropanol:water. The mixture was then subjected to mechanical homogenation employing a Mini-Beadbeater™ and 1.0 mm Zirconia/Silica Beads (BioSpec Products) followed by centrifugation. The sample extraction of plasma (20 μL) or brain homogenate (20 μL) was performed by a method based on protein precipitation using three volumes of ice-cold acetonitrile containing an internal standard (50 ng/mL carbamazepine). The samples were centrifuged (3000 rcf, 5 min) and supernatants transferred and diluted 1:1 (supernatant: water) into a new 96 well plate, which was then sealed in preparation for LC/MS/MS […]
In vivo samples were analyzed via electrospray ionization (ESI) on an AB Sciex API-5500 QTrap (Foster City, CA) instrument that was coupled with Shimadzu LC-20AD pumps (Columbia, MD) and a Leap Technologies CTC PAL auto-sampler (Carrboro, NC). Analytes were separated by gradient elution using a Fortis C18 3.0 x 50 mm, 3 µm column (Fortis Technologies Ltd, Cheshire, UK) thermostated at 40°C. HPLC mobile phase A was 0.1% formic acid in water (pH unadjusted), mobile phase B was 0.1% formic acid in acetonitrile (pH unadjusted). The gradient started at 30% […]
min and returned to 30% B in 0.1 min followed by a re-equilibration (0.9 min). The total run time was 2.5 min and the HPLC flow rate was 0.5 mL/min. The source temperature was set at 500°C and mass spectral analyses were performed using multiple reaction monitoring (MRM), with transitions specific for each compound utilizing a Turbo-Ionspray® source in positive ionization […]
mode (5.0 kV spray voltage). The calibration curves were constructed in blank plasma. All data were analyzed using AB Sciex Analyst software v1.5.1.
All animal study procedures were approved by the Institutional Animal Care and Use Committee and were conducted in accordance with the National Institutes of Health regulations of animal care covered in Principles of Laboratory Animal Care (National Institutes of Health). […]
GraphPad Prism (version 4.03, GraphPad, La Jolla, CA). […]

h and r mGlu2-4,6-8 = test: mGlu subtype selectivity; format: cell-based, human, rat; details: Table 1
[6] = Single IV bolus PK and tolerability in male beagle dogs; format: in vivo; details: male beagle dog, 0.5 mg/kg IV bolus
P-gp = molecular target: T1, P-gp (Homo sapiens, UniProt P08183); test: MDCK-MDR1 efflux and permeability; format: in vitro ADME; details: for Papp / efflux ratio: dog, MDCK-MDR1; for efflux ratio: read-out: P-gp, MDCK-MDR1 ER
T1 construct: expressed in transfected cells; host or cells: MDCK-MDR1
T1 sequence (P08183 whole entry): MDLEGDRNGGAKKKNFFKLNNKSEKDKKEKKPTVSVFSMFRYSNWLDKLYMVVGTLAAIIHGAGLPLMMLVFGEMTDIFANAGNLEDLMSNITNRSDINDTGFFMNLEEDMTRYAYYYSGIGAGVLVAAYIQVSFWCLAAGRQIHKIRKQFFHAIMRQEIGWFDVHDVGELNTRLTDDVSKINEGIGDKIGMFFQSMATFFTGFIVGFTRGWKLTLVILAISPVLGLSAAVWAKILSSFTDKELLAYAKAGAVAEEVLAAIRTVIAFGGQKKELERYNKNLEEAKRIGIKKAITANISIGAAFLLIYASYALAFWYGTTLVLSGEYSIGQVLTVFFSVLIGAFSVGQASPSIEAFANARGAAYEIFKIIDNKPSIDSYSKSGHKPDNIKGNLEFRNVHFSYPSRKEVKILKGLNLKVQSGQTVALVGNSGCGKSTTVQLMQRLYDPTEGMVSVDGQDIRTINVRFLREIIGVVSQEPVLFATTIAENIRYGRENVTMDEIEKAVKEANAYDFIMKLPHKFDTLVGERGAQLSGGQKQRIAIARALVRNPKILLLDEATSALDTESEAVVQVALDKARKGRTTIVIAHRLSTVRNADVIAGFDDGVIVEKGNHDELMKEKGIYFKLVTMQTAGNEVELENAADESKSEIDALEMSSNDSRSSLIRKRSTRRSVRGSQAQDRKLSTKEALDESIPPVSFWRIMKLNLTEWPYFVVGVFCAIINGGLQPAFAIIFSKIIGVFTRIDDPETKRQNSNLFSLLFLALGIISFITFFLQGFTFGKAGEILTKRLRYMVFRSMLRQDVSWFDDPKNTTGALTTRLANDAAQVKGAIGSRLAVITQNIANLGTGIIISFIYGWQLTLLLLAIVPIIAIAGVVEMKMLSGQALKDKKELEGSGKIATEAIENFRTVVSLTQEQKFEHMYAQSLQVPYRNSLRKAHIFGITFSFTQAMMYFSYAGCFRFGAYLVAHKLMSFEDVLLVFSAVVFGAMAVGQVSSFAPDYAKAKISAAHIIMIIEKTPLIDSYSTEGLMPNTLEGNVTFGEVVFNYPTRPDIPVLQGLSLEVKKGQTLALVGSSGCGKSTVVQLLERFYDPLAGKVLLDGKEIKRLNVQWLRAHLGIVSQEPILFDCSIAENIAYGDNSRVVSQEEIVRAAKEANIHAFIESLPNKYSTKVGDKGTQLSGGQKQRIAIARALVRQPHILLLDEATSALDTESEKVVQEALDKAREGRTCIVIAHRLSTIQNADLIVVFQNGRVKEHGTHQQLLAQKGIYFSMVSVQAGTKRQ

SMILES: Cc1nc(C2CC2)ccc1CNC(=O)c1cc(-n2cccn2)ccc1Cl [compound 8]
- adverse events at 6.2-fold rat EC50 free in brain ([1]; rat PO): piloerection, slow movement, and reaction to stimuli
- duration of adverse events postdose ([1]; rat PO): ~2 h
- free brain concentration (fold rat EC50) that resulted in AEs ([1]; rat PO PK studies): 6.2 fold
- free brain concentration that resulted in AEs ([1]; rat PO PK studies): 664 nM
- fraction unbound at 4 h, 5 µM [2]: 0.099
- AUC at 3 day ([3]; mouse, three-day, 50 mg/kg, read-out: AUCss at 50 mg/kg): 5.5 µM·h
- AUC at 3 day ([3]; mouse, three-day, 200 mg/kg, read-out: AUCss at 200 mg/kg): 69.9 µM·h
- AUC at 3 day ([3]; mouse, three-day, high-dose group (printed 500 mg/kg), read-out: AUCss in high-dose group): 208 µM·h
- maximum tolerated dose (MTD) ([3]; mouse three-day study): not reached
- findings at 50 mg/kg ([3]; mouse, three-day, 50 mg/kg): no test-item-related findings
- findings at 200 mg/kg ([3]; mouse, three-day, 200 mg/kg): some of the mice showed signs of weight loss, decreased motor activity, and swaying gait
- findings in high-dose group ([3]; mouse, three-day, high-dose group (printed 500 mg/kg)): several mice displayed weight loss, decreased motor activity, and swaying gait
- observations at >24-fold EC50 free brain ([4]; mouse PO): without any observed AEs
- free brain concentration as fold of mouse EC50 at 500 mg/kg ([4]; mouse PO 500 mg/kg): ~90 fold
- observations at 500 mg/kg ([4]; mouse PO 500 mg/kg): all animals displayed uncoordinated movements and were cold to the touch
- free brain concentration reached without AEs ([4]; mouse PO dose escalation): ~1250 nM
- free brain concentration as fold of mouse EC50 reached without AEs ([4]; mouse PO dose escalation (50, 150, 500 mg/kg)): > 24 fold
- Kp at 0.25 h [5]: 1.8
- Kp uu at 0.25 h [5]: 1.2
- EC50 (h and r mGlu2-4,6-8): > 10 µM
- adverse events in dogs [6]: all dogs displayed dizziness, salivation, and uncoordinated movements
- clearance ([6]; plasma, read-out: CLp (dog)): 10 mL/min/kg
- Vd ([6]; plasma, read-out: Vss (dog)): 4.6 L/kg
- half-life ([6]; plasma, read-out: t1/2 (dog) (converted)): 6.5 h
- P-gp, MDCK-MDR1 ER (P-gp): 0.93
- Papp (P-gp): 42 ×10⁻⁶ cm/s
- efflux ratio (P-gp): 0.93

SMILES: Cn1cc(-c2cc(CNC(=O)c3cc(-c4ccco4)ccc3Cl)n(C)n2)cn1 [compound 4]
- Kp at 0.25 h [5]: 0.89
- Kp uu at 0.25 h [5]: 0.98

SMILES: Cn1nc(-c2ccnn2C)cc1CNC(=O)c1cc(-n2cccn2)ccc1Cl [compound 5]
- Kp at 0.25 h [5]: 0.3
- Kp uu at 0.25 h [5]: 0.52

The next lines start with the values.

- Kp at 0.25 h [5]: 0.98
SMILES: Cc1nc2c(F)cccc2cc1CNC(=O)c1cc(-n2cccn2)ccc1Cl [compound 7]

- Papp (P-gp): 39 ×10⁻⁶ cm/s
- efflux ratio (P-gp): 0.5
SMILES: Cc1nc2ccccc2cc1CNC(=O)c1cc(-n2cccn2)ccc1Cl [compound 6]
